One data set relates to D2 receptors. In words: Contractility of the rabbit ear artery, antagonism of the selective D2 agonist quinpirol. Conditions: for antagonism of the effect of the selective D2 agonist quinpirol: 100 nM.
Data set [1] concerns rats. Put plainly: Amphetamine-induced hypermotility test. It counts as in vivo, rat. The settings on record: 3 mg/kg i.p.; amphetamine 2.5 mg/kg i.p.; FIG. 1. As to the method: Some behavioural tests were also conducted to identify possible antipsychotic properties of RS-79948-197.
For data set [2], the system named is rats. Put plainly: Pre-pulse inhibition (PPI) deficit induced by MK-801. It counts as in vivo, rat. Conditions: RS-79948-197 3 mg/kg i.p.; MK-801 0.1 mg/kg i.p.; FIG. 3. As to the method: The data are the average of 4-8 rats. *P<0.05, **P<0.01 vs. VEH+MK (one-way ANOVA followed by Tukey's Test).
The activity of RS-79948-197 was also evaluated on the deficit of “pre-pulse inhibition” (PPI) induced by MK-801, an antagonist of NMDA receptors of glutamate. As already mentioned previously, this latter test is considered the “gold standard” for the evaluation of the possible atypical antipsychotic activity of a drug and is predictive of the efficacy on negative symptoms, as well as on positive ones, of schizophrenia.

Data set [3] has as its system extracellular levels of dopamine. Put plainly: Microdialysis of extracellular dopamine in rat medial prefrontal cortex. It counts as in vivo. The settings on record: free-moving rats, RS-79948-197 3 mg/kg i.p., clozapine 2.5 mg/kg i.p., FIG. 4. As to the method: The drugs were administered at time T=60 min, as indicated by the arrow. The values are expressed as a percentage of the basal value (mean+/−SEM).
Also, the effect of RS-79948-197 on the extracellular levels of dopamine in the rat prefrontal cerebral cortex, through microdialysis in free-moving rats, was further evaluated. As can be clearly seen in the appended FIG. 4, the effects of the two drugs are substantially overlapping, as both have increased the extracellular concentration of dopamine up to about 250% of the respective basal value. Given the hypothesis of cortical hypodopaminergy in the etiopathogenesis of schizophrenia, the ability of a drug to increase the cortical dopamine is considered a favourable effect for its antipsychotic properties.

Another data set has as its target T1, human D2long receptor (Homo sapiens, UniProt P14416).
T1 construct: expressed in transfected cells; host or cells: HEK-293
Put plainly: Replacement of [3H]methyl-spiperone binding from human D2long receptor expressed by HEK-293 cells. Here is the method:
In particular, the receptor binding study was conducted by analysing the ability to replace the binding of [^3H]methyl-spiperone from the human D2long receptor expressed by HEK-293 cells (Hall, D. A. and Strange, P. G., 1997, Brit. J. Pharmacol. 121:731-736).

Data set [4] deals with rats. Put plainly: Quinpirol-induced stereotypies. It counts as in vivo, rat. The text has this:
The data are the average of 6 rats and are expressed in total counts. *P<0.01 vs. treatment with physiological saline (Student's t-test).

T1 sequence (P14416 whole entry): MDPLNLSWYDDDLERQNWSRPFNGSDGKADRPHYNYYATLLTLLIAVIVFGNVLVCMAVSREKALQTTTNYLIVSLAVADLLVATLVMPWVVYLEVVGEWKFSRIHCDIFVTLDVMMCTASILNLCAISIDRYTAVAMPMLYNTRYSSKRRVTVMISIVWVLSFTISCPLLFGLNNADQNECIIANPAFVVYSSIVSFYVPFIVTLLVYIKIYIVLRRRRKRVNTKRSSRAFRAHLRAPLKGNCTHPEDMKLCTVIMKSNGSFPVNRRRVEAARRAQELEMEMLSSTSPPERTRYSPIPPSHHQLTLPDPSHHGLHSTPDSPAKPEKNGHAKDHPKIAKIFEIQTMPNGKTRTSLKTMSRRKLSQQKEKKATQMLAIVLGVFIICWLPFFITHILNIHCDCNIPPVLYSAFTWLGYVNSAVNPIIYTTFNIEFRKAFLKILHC

On to `CCS(=O)(=O)N1CCC[C@@H]2CN3CCc4cc(OC)ccc4[C@@H]3C[C@@H]21.Cl` [RS-79948-197, (8aR,12aS,13aS)-5,8,8a,9,10, 11, 12, 12a, 13, 13a-decahydro-3-methoxy-12-(ethylsulphonyl)-6H-isoquino[2,1-g][1,6]naphthyridine], for which the “antagonism of the effect of the selective D2 agonist quinpirol” value with D2 receptors was found to be 70%. For the same molecule, the “effect on quinpirol-induced release at higher concentrations” value with D2 receptors (higher concentrations than 100 nM) was “completely cancelled”. In the data set with rats [1], the “total distance travelled by rats in 120 minutes” value is listed as “significantly decreased”. Besides, the “PPI deficit induced by MK-801” value with rats [2] is recorded as “effectively reduced”. In addition, the “extracellular concentration of dopamine, percentage of basal value” in data set [3] is “about 250 % of the respective basal value”. Moreover, the “affinity relative to that of clozapine” value on human D2long receptor (human D2long receptor) is “about twice”. Further, the Ki on human D2long receptor (human D2long receptor expressed by HEK-293 cells, read-out: Ki, inhibition of [3H]methyl-spiperone binding) is 95 nM. Besides, the “stereotypies induced by quinpirol” value with rats [4] (3 mg/kg i.p., quinpirol 0.5 mg/kg i.p., FIG. 2) is recorded as “effectively reduced”. In the data set with rats [4] (rats), the “extrapyramidal effects per se” value was “without inducing per se extrapyramidal effects”.

As for `CCN1CCCC1CNC(=O)c1cc(S(N)(=O)=O)ccc1OC` (stereo not shown) [sulpiride, reference compound], the “antagonism of the effect of the selective D2 agonist quinpirol” value with D2 receptors is on record as “about 40%”.

Usually Ki stands for the dissociation constant of the complex between target and ligand, obtained from inhibition or displacement.

Source of the values: US20210393616A1, “PHARMACEUTICAL COMPOSITIONS AND METHODS FOR TREATING PSYCHOSIS” (UNIVERSITA' DEGLI STUDI DI CAGLIARI, priority 2018, published 2021).
